# System: GST-tagged Cn
# Experiment: PEPperPRINT peptide microarray binding assay with GST-tagged Cn
# From the text: We then estimated in-silico the binding strength of the various peptides to Cn by template-based docking followed by flexible backbone refinement using Modeller and PepCrawler (Figs 4 and S4). In parallel, we performed a medium-throughput qualitative binding assay using a PEPperPRINT peptide microarray to evaluate the direct binding of Cn to selected peptides (Figs 4 and S5, S3 Data).
# Fig 4 Medium-throughput filtering by structural modeling and microarray screening. (a) Depiction of the structural modeling protocol: after alignment to the known PxIxIT binding site, an efficient flexible backbone structure refinement algorithm is applied to estimate the docking energy. […] (c) Coefficients of the equivalent single-site model fitted by sparse linear regression, shown in weight logo representation. […] Colors indicate physical property (black = hydrophobic, red = negatively charged, etc.). (d) Per-gene distribution of docking scores across natural fragments (lower is better). […] (e) Overview of the microarray screening. Peptides are printed on the chip (two circles per peptide). After pouring of Cn and subsequent washing, fluorescent-tagged, a Cn-targeting antibody is overlaid and an image is taken. Fluorescent spots indicate strong Cn binders. (f) Scatter plot of the sequence likelihood (normalized by length, higher is better) against fluorescence level (higher is better, see Methods for details of the data analysis).
# In parallel, selected peptides were tested for Cn binding on a chip microarray (PEPperPRINT). 786 peptides were printed on the chip and were incubated with GST-tagged Cn overnight at 4°C. Following extensive washing, binding was detected by applying a fluorescently labeled (Alexa-Fluor 647) GST antibody. […] The experiment was repeated five times, and Z-normalized fluorescence levels were determined following post-processing of the raw data (Methods, S5A, S5B and S5C Fig).
# The peptide array was prepared as a custom array pepper chip (PEPperPRINT). For binding detection, 1mg/ml GST-tagged Cn was incubated overnight on the microarray at 4°C. Following extensive washing, fluorescently labeled (Alexa-Fluor 647) GST-antibody. […] The experiment was repeated five times. Each scan was analyzed as follows: a grid was overlaid using the border HA markers to determine regions of interest (ROI) for each peptide (two ROIs per peptide) and the logarithm of the average fluorescence intensity was computed for each ROI. […] To remove spatial artifacts, a position-dependent baseline fluorescence was fitted using a second-order polynomial, and subtracted to the fluorescence. Fluorescence levels were next averaged over the two ROI for each peptide and Z-normalized. […] The Z-scores were averaged over the five repetitions to yield one fluorescence score per peptide.
# [1] = max over the chip locations listed for the peptide (two spots)
# [2] = mean over the chip locations listed for the peptide (two spots)
# [3] = GST-tagged Cn, max over the spots named in Location on chip
# [4] = GST-tagged Cn, mean over the spots named in Location on chip
# [5] = GST-tagged Cn, max over the spots on the chip (two locations)
# [6] = GST-tagged Cn, mean over the spots on the chip (two locations)
# [7] = GST-tagged Cn, max over the chip spots listed under Location on chip
# [8] = GST-tagged Cn, mean over the chip spots listed under Location on chip
# [9] = GST-tagged Cn, max over the chip locations
# [10] = GST-tagged Cn, mean over the chip locations
# [11] = max over the spots listed under Location on chip
# [12] = mean over the spots listed under Location on chip
sequence,measurement,setting,value
SNSTNPEITITPAELC [SeqRIPOR2_Tarsius_syrichta],Chip Fluorescence (max),[1],7.538
same,Chip Fluorescence (mean),[2],1.227
GGESQPGIVVHVCEED [SeqRBMlowT_2505],Chip Fluorescence (max),[3],1.711
same,Chip Fluorescence (mean),[4],0.4381
QAIYQDILGIGAFSGS [SeqRBM_285],Chip Fluorescence (max),[5],1.266
same,Chip Fluorescence (mean),[6],-0.8575
KHATSPRINITQTSTL [SeqRBM_2048],Chip Fluorescence (max),[7],0.7747
same,Chip Fluorescence (mean),[8],-0.7747
KKMSPPCIVVSPPEED [SeqRBMlowT_306],Chip Fluorescence (max),[1],6.125
same,Chip Fluorescence (mean),[2],1.9169
KKMSPPCISIDPAPNN [SeqRBMlowT_7656],Chip Fluorescence (max),[9],0.1833
same,Chip Fluorescence (mean),[10],-1.098
GTLYDNVLGIESFSLS [SeqRBMlowT_4817],Chip Fluorescence (max),[1],3.464
same,Chip Fluorescence (mean),[2],0.964
VACITWAAMLIIFSMV [Seqrandom_9980],Chip Fluorescence (max),[7],0.9057
same,Chip Fluorescence (mean),[8],-0.476
TFWTNPQFRLKVVDPD [SeqRBMlowT_7375],Chip Fluorescence (max),[3],1.609
same,Chip Fluorescence (mean),[4],0.5158
SLKLWMLLGIEAFTLS [SeqRBM_4562],Chip Fluorescence (max),[5],1.02
same,Chip Fluorescence (mean),[6],0.3817
RTYINPFMQFTDGGRF [SeqRBMlowT_552],Chip Fluorescence (max),[11],2.5867
same,Chip Fluorescence (mean),[12],0.5553
TFWTNPQYRIKLTDAD [SeqRBMlowT_4313],Chip Fluorescence (max),[7],0.4524
same,Chip Fluorescence (mean),[8],-0.5715
TFWTNPQYRVKLEEPD [SeqRBMlowT_2230],Chip Fluorescence (max),[5],1.125
same,Chip Fluorescence (mean),[6],-0.4829
KVMAVPRISRSPTQVL [SeqRBM_6937],Chip Fluorescence (max),[3],1.835
same,Chip Fluorescence (mean),[4],0.723
STSSLPTFSFSSPLPT [SeqRBMlowT_898],Chip Fluorescence (max),[9],-0.2197
same,Chip Fluorescence (mean),[10],-1.424
FHYEDLSWHFQLFEGE [Seqrandom_9976],Chip Fluorescence (max),[1],5.256
same,Chip Fluorescence (mean),[2],1.49
HVSSSPDIVITPTQHR [SeqRBMlowT_1399],Chip Fluorescence (max),[9],0.3374
same,Chip Fluorescence (mean),[10],-0.4706
LLLKIPSLNINDVEAS [SeqRBM_1919],Chip Fluorescence (max),[9],-0.781
same,Chip Fluorescence (mean),[10],-1.379
GSMLVPAINIDYAPTN [SeqRBMlowT_5048],Chip Fluorescence (max),[11],2.642
same,Chip Fluorescence (mean),[12],1.025
RSYVNPAYSFTFDSKA [SeqSFB3_Lachancea_meyersii],Chip Fluorescence (max),[3],1.532
same,Chip Fluorescence (mean),[4],-0.902
SHMAPPAINIDFAPSN [SeqCRZ1_Metarhizium_rileyi],Chip Fluorescence (max),[9],0.3108
same,Chip Fluorescence (mean),[10],-0.9278
HVSSSPDIAITPTQHR [SeqRBMlowT_750],Chip Fluorescence (max),[9],0.08257
same,Chip Fluorescence (mean),[10],-1.44
KAYMCPYMDFQDGGRR [SeqRBM_4270],Chip Fluorescence (max),[11],3.135
same,Chip Fluorescence (mean),[12],0.405
RAYINPFMQFIDGGRK [SeqRBMlowT_4070],Chip Fluorescence (max),[1],3.668
same,Chip Fluorescence (mean),[2],2.003
RQPGQALLELKGHAGA [SeqYPL247C_Erysiphe_pulchra],Chip Fluorescence (max),[1],4.952
same,Chip Fluorescence (mean),[2],0.4575
TFWMNPQFKINLEEED [SeqCAPN11_Salmo_salar],Chip Fluorescence (max),[11],3.077
same,Chip Fluorescence (mean),[12],0.4499
GTESTPSVVVHVCDSD [SeqRCN1_Desmodus_rotundus],Chip Fluorescence (max),[7],0.4586
same,Chip Fluorescence (mean),[8],0.04317
ESFGNELIPFNASKSY [Seqshuffled_9947],Chip Fluorescence (max),[9],-0.1304
same,Chip Fluorescence (mean),[10],-0.5132
TFWTNPQYTITLEEPD [SeqRBMlowT_2235],Chip Fluorescence (max),[3],1.679
same,Chip Fluorescence (mean),[4],0.2149
KHLDVPDIIITPPTPT [SeqC16orf74_Pan_troglodytes],Chip Fluorescence (max),[1],11.1628
same,Chip Fluorescence (mean),[2],2.896
QSNSTPTITITPPSDA [SeqRBM_9156],Chip Fluorescence (max),[1],7.93
same,Chip Fluorescence (mean),[2],2.436
DSLKIPQVRMRIDSAT [SeqRBM_3711],Chip Fluorescence (max),[9],-0.1629
same,Chip Fluorescence (mean),[10],-1.069
RMMEPQNRGFKGCTES [Seqshuffled_509],Chip Fluorescence (max),[1],6.671
same,Chip Fluorescence (mean),[2],1.748
TFWTNPQYRVHVPDED [SeqRBMlowT_2927],Chip Fluorescence (max),[5],1.2431
same,Chip Fluorescence (mean),[6],-0.6745
TFWMNPQFKISLEDPD [SeqRBMlowT_4243],Chip Fluorescence (max),[1],3.47
same,Chip Fluorescence (mean),[2],1.839
ADEAIPEITITPAELP [SeqRBMlowT_424],Chip Fluorescence (max),[11],2.999
same,Chip Fluorescence (mean),[12],0.8947
RNPGQALLTLRGHSAS [SeqRBMlowT_5835],Chip Fluorescence (max),[7],0.6321
same,Chip Fluorescence (mean),[8],-0.2233
TPVSDHNFALDVSGKP [Seqshuffled_9616],Chip Fluorescence (max),[3],1.846
same,Chip Fluorescence (mean),[4],0.06645
TFWTNPQYRIKVTDPD [SeqRBMlowT_12],Chip Fluorescence (max),[9],-0.2746
same,Chip Fluorescence (mean),[10],-1.188
GTSGGFPQTDRSHKKQ [SeqRBM_413],Chip Fluorescence (max),[1],3.637
same,Chip Fluorescence (mean),[2],-0.2581
PQPSVQSAEFMEFVGH [Seqshuffled_8788],Chip Fluorescence (max),[3],1.4183
same,Chip Fluorescence (mean),[4],0.4268
TFWHNPQYVINLEDPD [SeqCAPN11_Anopheles_dirus],Chip Fluorescence (max),[3],1.5542
same,Chip Fluorescence (mean),[4],0.5719
SLDEEPGISINEKPVG [Seqshuffled_9948],Chip Fluorescence (max),[3],1.684
same,Chip Fluorescence (mean),[4],0.5765
TFWSNPQFKITLDEPD [SeqRBMlowT_5518],Chip Fluorescence (max),[3],1.348
same,Chip Fluorescence (mean),[4],-0.7061
PKMAPPAINIDFAPTN [SeqRBMlowT_1805],Chip Fluorescence (max),[11],2.636
same,Chip Fluorescence (mean),[12],-0.01431
AQSSQPPISTKYDARG [Seqshuffled_9482],Chip Fluorescence (max),[7],0.6167
same,Chip Fluorescence (mean),[8],-0.6535
LKDEFPDVRLHIISKL [SeqRCN1_Arthroderma_otae],Chip Fluorescence (max),[5],1.269
same,Chip Fluorescence (mean),[6],0.6031
RQPGTALLELGGHKKQ [SeqRBMlowT_7758],Chip Fluorescence (max),[5],1.043
same,Chip Fluorescence (mean),[6],0.136
QSQSNPEITVTPPETE [SeqRIPOR2_Austrofundulus_limnaeus],Chip Fluorescence (max),[1],10.3742
same,Chip Fluorescence (mean),[2],0.3512
GGPGTPGRPGIHSAPS [SeqRBM_5424],Chip Fluorescence (max),[3],1.6472
same,Chip Fluorescence (mean),[4],-0.88
QFKKSNLLGFMAASGD [Seqshuffled_9600],Chip Fluorescence (max),[5],0.9897
same,Chip Fluorescence (mean),[6],0.1872
ADEANPQITITPAELP [SeqRBMlowT_1252],Chip Fluorescence (max),[9],-0.527
same,Chip Fluorescence (mean),[10],-1.133
SSEYQESLCIENFSAN [SeqRBM_3304],Chip Fluorescence (max),[3],1.766
same,Chip Fluorescence (mean),[4],0.6423
LCVTGRERIAEDWLRP [Seqrandom_9974],Chip Fluorescence (max),[5],1.2052
same,Chip Fluorescence (mean),[6],0.7765
TFWSNPQYFVTLLESD [SeqRBM_6656],Chip Fluorescence (max),[11],3.032
same,Chip Fluorescence (mean),[12],1.049
KPFECPSIQITSISPN [SeqNFATC3_Homo_sapiens],Chip Fluorescence (max),[7],0.8784
same,Chip Fluorescence (mean),[8],-0.3746
GGPGTPGRQGQHLAPS [SeqRBMlowT_7794],Chip Fluorescence (max),[9],0.3619
same,Chip Fluorescence (mean),[10],-1.021
TFWSNPQFDIALDDDD [SeqRBM_1928],Chip Fluorescence (max),[1],3.897
same,Chip Fluorescence (mean),[2],1.75
ADEAGPEIVITPTELP [SeqRBMlowT_3142],Chip Fluorescence (max),[9],0.161
same,Chip Fluorescence (mean),[10],-1.962
PAGAGVGIVITVTEAE [SeqRBMlowT_166],Chip Fluorescence (max),[11],3.117
same,Chip Fluorescence (mean),[12],1.082
ERWSIGFGDMFCNQFK [Seqrandom_9989],Chip Fluorescence (max),[11],2.7221
same,Chip Fluorescence (mean),[12],0.53
PSLFPDALGLGQFSLS [SeqCRZ1_Aureobasidium_pullulans],Chip Fluorescence (max),[5],1.272
same,Chip Fluorescence (mean),[6],0.42
KAYMNPYVQFIDGGRR [SeqRBMlowT_9255],Chip Fluorescence (max),[5],1.252
same,Chip Fluorescence (mean),[6],-0.2059
SSQGSSRPARSPERTV [SeqRBM_2387],Chip Fluorescence (max),[7],0.4699
same,Chip Fluorescence (mean),[8],-0.1808
QLLAVPALSVDRKGPK [SeqCACUL1_Dipodomys_ordii],Chip Fluorescence (max),[5],1.085
same,Chip Fluorescence (mean),[6],-0.04024
